We go through four molecules from ChEMBL document CHEMBL1129916, “Topoisomerase II inhibitors. Synthetic hybridization of 4-quinolones and anthracyclines” (Bioorg Med Chem Lett, 1997).

Structures are written as SMILES. Activity calls are given as the source filed them. No cut-off for these calls is given here.

One assay has as its system HT-29. Description: In vitro inhibitory activity against HT-29 tumor cells; IA= inactive. Type of assay: functional, cell-based, Homo sapiens.
Another assay has as its system B16-F10. Description: In vitro inhibitory activity against B16F10 tumor cells; IA= Inactive. Type of assay: functional, cell-based, Mus musculus.
Assay [1] can be described thus: In vitro activity in agar dilution-streak assay against Gram-negative bacteria at 100 ug/ml; IA means Inactive. It counts as functional. A general note: In agar dilution, organisms are placed on agar that contains the substance at set levels.
For a further assay, the system named is A549. The assay is described as follows: In vitro inhibitory activity against A549 tumor cell culture; IA= Inactive. Type of assay: functional, cell-based, Homo sapiens.
The next assay has as its system Bacteria. Description: In vitro activity in agar dilution-streak assay against Gram-positive bacteria at 100 ug/ml; IA means Inactive. Type of assay: functional, organism-based.
In a further assay the test system is Nucleic Acid. The assay is described as follows: Inhibitory against Escherichia coli derived DNA gyrase II as ability to induce strand breakage; IA means Inactive. Type of assay: nucleic-acid assay.
For the next assay, the system named is P388. The assay is described as follows: In vitro inhibitory activity against P-388 tumor cells; IA= Inactive. It counts as functional, cell-based, Mus musculus.

In the case of `O=C1c2ccccc2C(=O)c2c(O)c3c(c(O)c21)C(=O)C(C(=O)O)CN3c1ccc(F)cc1` (stereo not drawn), the IC50 result in the assay with HT-29, in the assay on B16-F10, in the assay on A549 and in the assay on P388 was “Not Active” each time. Besides, the outcome (in assay [1]; with Bacteria; with Nucleic Acid) was inactive.
In the case of `CCN1CC(C(=O)O)C(=O)c2c(O)c3c(c(O)c21)C(=O)c1ccccc1C3=O` (stereo not drawn), the IC50 result in the assay on HT-29, with B16-F10, in the assay on A549 and in the assay with P388 was “Not Active” in each case. Also, the outcome (in assay [1]; with Bacteria; with Nucleic Acid) was inactive.
Consider `O=C(O)c1cn(C2CC2)c2cc(N3CCNCC3)c(F)cc2c1=O`, for which the outcome (in assay [1]; with Bacteria) was inactive.
In the case of `O=C1c2ccccc2C(=O)c2c(O)c3c(c(O)c21)C(=O)C(C(=O)O)CN3C1CC1` (stereo not drawn), the IC50 entry in the assay with HT-29, with B16-F10, in the assay with A549 and in the assay with P388 was “Not Active” throughout. In addition, the result (in assay [1]; with Bacteria; in the assay with Nucleic Acid) was inactive.
